As a reminder, the IC50 is the midpoint of a concentration-inhibition curve. Usually logD stands for the decadic logarithm of the distribution of all forms, ionised or not, between an organic phase and buffer at a given pH. Higher therefore signals higher lipophilicity. The fraction unbound is the share of the substance not bound to proteins or other matrix. Lower therefore signals little free substance. In general, inhibition refers to the relative decrease from the control value, in per cent. A lower inhibition goes with a weak effect. The term AUC(0-t) denotes the area under the concentration-time curve up to a stated or last time point. Lower therefore signals low exposure. As a reminder, the clearance is the rate of elimination divided by the concentration. Low readings indicate inefficient removal, high ones efficient removal. As usually defined, the Cmax is the highest concentration seen after dosing. As a reminder, the half-life is the time needed for the level to fall by half in the phase considered. As usually defined, the Tmax is the time from dosing to the highest level.

Experimental findings from ChEMBL document CHEMBL5247677, “N-Aryl Indoles as a Novel Class of Potent NaV1.7 Inhibitors” (ACS Med Chem Lett, 2023) are described below.

SMILES strings stand for the structures. Values after ≈ are worked out from the molar mass of the structure shown. Active and inactive are the calls of the source.

Series [1] has as its target Sodium channel protein type 9 subunit alpha/beta-1/beta-2 (Homo sapiens, UniProt Q15858). In words: Inhibition of human Nav1.7/beta1/2 transfected in HEK293-A cells assessed as inhibition of channel current incubated for 5.5 mins by high-throughput electrophysiology system analysis. In kind it is cell-based.
In series [2] the target is Nav1.1/beta1/beta2 sodium channel (Homo sapiens, UniProt P35498). In words: (§1) Inhibition of human Nav1.1/beta1/2 transfected in HEK293-A cells assessed as inhibition of channel current incubated for 5.5 mins by high-throughput electrophysiology system analysis. It counts as toxicity, cell-based. Particulars: human, HEK293-A cells transfected with human Nav1.1/beta1/2.
In series [3] the target is Sodium channel protein type 5 subunit alpha/beta-1/beta-2 (Homo sapiens, UniProt Q14524). In words: (§2) Inhibition of human Nav1.5/beta1/2 transfected in HEK293-A cells assessed as inhibition of channel current incubated for 5.5 mins by high-throughput electrophysiology system analysis. It counts as toxicity, cell-based.
Series [4] in a line: Aqueous thermodynamic solubility of the compound at pH 6.8 measured after 4 hrs by HPLC-UV analysis. It counts as physicochemical. As to conditions: read-out: Therm_solubility.
The test system of series [5] is Mus musculus. As to the kind of experiment: Analgesic activity against PSL-induced neuropathic pain mouse model assessed as reversal of thermal hyperalgesia at 3 mg/kg, po by plantar test. In kind it is functional, organism-based.
Series [6] is described as follows: 1-Octanol/PBS buffer distribution coefficient, log D of the compound at pH 7.4 by HPLC/LC-MS analysis. It counts as physicochemical.
Series [7] addresses Sodium channel protein type 1 subunit alpha/beta-1/beta-2 (Homo sapiens, UniProt P35498). The description is as §1. It counts as toxicity, cell-based.
A short description of series [8]: Selectivity ratio of IC50 for human Nav1.5/beta1/2 transfected in HEK293-A cells to IC50 for human Nav1.7/beta1/2 transfected in HEK293-A cells.
Series [9] in a line: Unbound fraction in mouse plasma. In kind it is ADME, cell-free.
The target in series [10] is Sodium channel protein type 9 subunit alpha/beta-1/beta-2 (Mus musculus, UniProt Q62205). As to the kind of experiment: Inhibition of mouse Nav1.7/beta1/2 transfected in HEK293-A cells assessed as inhibition of channel current incubated for 5.5 mins by high-throughput electrophysiology system analysis. It counts as cell-based.
The nature of series [11]: Selectivity ratio of IC50 for human Nav1.1/beta1/2 transfected in HEK293-A cells to IC50 for human Nav1.7/beta1/2 transfected in HEK293-A cells.
Another series deals with hERG (KCNH2) (Homo sapiens, UniProt Q12809). As to the kind of experiment: Inhibition of hERG at 100 uM. In kind it is toxicity. In general terms: The hERG channel carries a current that helps repolarise heart muscle cells.
Series [12] has as its target Nav1.5/beta1/beta2 sodium channel (Homo sapiens, UniProt Q14524). The description is as §2. In kind it is toxicity, cell-based. As to conditions: human, HEK293-A cells transfected with human Nav1.5/beta1/2.
Series [13] in a line: AUC(0 to 24 hrs) in ddY mouse at 1 mg/kg, po by LC-MS/MS analysis. Particulars: in vivo. In kind it is ADME, organism-based. On the set-up: dose 1 mg/kg, route po.
Series [14] can be described thus: Total body clearance in ddY mouse at 1 mg/kg, iv by LC-MS/MS analysis. It counts as ADME, organism-based. Particulars: in vivo.
Series [15] is described as follows: Cmax in ddY mouse at 1 mg/kg, po by LC-MS/MS analysis. It counts as ADME, organism-based. On the set-up: dose 1 mg/kg, route po. As to conditions: in vivo.
In the next series the target is Cytochrome P450 2D6 (Homo sapiens, UniProt P10635). In words: Inhibition of CYP2D6 (unknown origin) at 10 uM. It counts as ADME.
Series [16] is described as follows: Half life in ddY mouse at 1 mg/kg, po by LC-MS/MS analysis. In kind it is ADME, organism-based. Particulars: in vivo.
Series [17] deals with Mus musculus. In words: Analgesic activity against PSL-induced neuropathic pain mouse model assessed as reversal of thermal hyperalgesia at 1 mg/kg, po measured after 240 mins by plantar test. It counts as functional, organism-based.
In another series the target is Cytochrome P450 3A4 (Homo sapiens, UniProt P08684). As to the kind of experiment: Inhibition of CYP3A4 (unknown origin) at 10 uM. In kind it is ADME.
A further series concerns the target T1, Cytochrome P450 1A2 (Homo sapiens, UniProt P05177).
T1 sequence (P05177 whole entry): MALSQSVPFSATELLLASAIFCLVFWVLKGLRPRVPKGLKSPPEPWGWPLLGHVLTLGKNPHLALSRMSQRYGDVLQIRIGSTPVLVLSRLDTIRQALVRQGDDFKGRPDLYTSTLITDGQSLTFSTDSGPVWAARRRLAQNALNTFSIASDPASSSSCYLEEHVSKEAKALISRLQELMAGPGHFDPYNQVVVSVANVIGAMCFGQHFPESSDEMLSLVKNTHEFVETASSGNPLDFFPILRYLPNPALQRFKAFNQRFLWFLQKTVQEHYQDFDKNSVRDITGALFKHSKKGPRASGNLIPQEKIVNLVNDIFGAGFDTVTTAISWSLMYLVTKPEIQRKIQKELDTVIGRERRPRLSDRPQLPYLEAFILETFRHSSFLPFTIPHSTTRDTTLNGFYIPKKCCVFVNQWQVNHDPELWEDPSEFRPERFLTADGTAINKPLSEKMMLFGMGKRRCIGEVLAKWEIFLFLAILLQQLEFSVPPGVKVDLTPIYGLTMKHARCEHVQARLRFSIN
In words: Inhibition of CYP1A2 (unknown origin) at 10 uM. It counts as ADME.

A further series deals with Cytochrome P450 2C9 (Homo sapiens, UniProt P11712). As to the kind of experiment: Inhibition of CYP2C9 (unknown origin) at 10 uM. In kind it is ADME.
Series [18] can be described thus: Glutathione reactivity in human liver microsome assessed as GSH adduct formation. It counts as ADME. Particulars: microsomes. For orientation: Microsomes from liver hold many membrane-bound enzymes, among them those of drug oxidation.
Series [19] can be described thus: Volume of distribution at steady state in ddY mouse at 1 mg/kg, iv by LC-MS/MS analysis. It counts as ADME, organism-based. As to conditions: in vivo, read-out: Vdss.
A short description of series [20]: Ratio of fCmax in ddY mouse plasma at 1 mg/kg, po to IC50 for inhibition of mouse Nav1.7/beta1/2 transfected in HEK293-A cells.
For series [21], the system named is Mus musculus. As to the kind of experiment: Analgesic activity against PSL-induced neuropathic pain mouse model assessed as reversal of thermal hyperalgesia at 1 mg/kg, po measured after 30 mins by plantar test. It counts as functional.
Series [22] has as its system Mus musculus. As to the kind of experiment: Analgesic activity against PSL-induced neuropathic pain mouse model assessed as reversal of thermal hyperalgesia at 1 mg/kg, po measured after 60 mins by plantar test. In kind it is functional, organism-based.
The nature of series [23]: Tmax in ddY mouse at 1 mg/kg, po by LC-MS/MS analysis. In kind it is ADME, organism-based. As to conditions: in vivo.
Series [24] deals with Mus musculus. In words: Analgesic activity against PSL-induced neuropathic pain mouse model assessed as reversal of thermal hyperalgesia at 1 mg/kg, po measured after 120 mins by plantar test. It counts as functional, organism-based.
A short description of series [25]: Bioavailability in ddY mouse at 1 mg/kg, iv by LC-MS/MS analysis. Particulars: in vivo. In kind it is ADME, organism-based.

Chain of Sodium channel protein type 5 subunit alpha/beta-1/beta-2 (Q14524 whole entry): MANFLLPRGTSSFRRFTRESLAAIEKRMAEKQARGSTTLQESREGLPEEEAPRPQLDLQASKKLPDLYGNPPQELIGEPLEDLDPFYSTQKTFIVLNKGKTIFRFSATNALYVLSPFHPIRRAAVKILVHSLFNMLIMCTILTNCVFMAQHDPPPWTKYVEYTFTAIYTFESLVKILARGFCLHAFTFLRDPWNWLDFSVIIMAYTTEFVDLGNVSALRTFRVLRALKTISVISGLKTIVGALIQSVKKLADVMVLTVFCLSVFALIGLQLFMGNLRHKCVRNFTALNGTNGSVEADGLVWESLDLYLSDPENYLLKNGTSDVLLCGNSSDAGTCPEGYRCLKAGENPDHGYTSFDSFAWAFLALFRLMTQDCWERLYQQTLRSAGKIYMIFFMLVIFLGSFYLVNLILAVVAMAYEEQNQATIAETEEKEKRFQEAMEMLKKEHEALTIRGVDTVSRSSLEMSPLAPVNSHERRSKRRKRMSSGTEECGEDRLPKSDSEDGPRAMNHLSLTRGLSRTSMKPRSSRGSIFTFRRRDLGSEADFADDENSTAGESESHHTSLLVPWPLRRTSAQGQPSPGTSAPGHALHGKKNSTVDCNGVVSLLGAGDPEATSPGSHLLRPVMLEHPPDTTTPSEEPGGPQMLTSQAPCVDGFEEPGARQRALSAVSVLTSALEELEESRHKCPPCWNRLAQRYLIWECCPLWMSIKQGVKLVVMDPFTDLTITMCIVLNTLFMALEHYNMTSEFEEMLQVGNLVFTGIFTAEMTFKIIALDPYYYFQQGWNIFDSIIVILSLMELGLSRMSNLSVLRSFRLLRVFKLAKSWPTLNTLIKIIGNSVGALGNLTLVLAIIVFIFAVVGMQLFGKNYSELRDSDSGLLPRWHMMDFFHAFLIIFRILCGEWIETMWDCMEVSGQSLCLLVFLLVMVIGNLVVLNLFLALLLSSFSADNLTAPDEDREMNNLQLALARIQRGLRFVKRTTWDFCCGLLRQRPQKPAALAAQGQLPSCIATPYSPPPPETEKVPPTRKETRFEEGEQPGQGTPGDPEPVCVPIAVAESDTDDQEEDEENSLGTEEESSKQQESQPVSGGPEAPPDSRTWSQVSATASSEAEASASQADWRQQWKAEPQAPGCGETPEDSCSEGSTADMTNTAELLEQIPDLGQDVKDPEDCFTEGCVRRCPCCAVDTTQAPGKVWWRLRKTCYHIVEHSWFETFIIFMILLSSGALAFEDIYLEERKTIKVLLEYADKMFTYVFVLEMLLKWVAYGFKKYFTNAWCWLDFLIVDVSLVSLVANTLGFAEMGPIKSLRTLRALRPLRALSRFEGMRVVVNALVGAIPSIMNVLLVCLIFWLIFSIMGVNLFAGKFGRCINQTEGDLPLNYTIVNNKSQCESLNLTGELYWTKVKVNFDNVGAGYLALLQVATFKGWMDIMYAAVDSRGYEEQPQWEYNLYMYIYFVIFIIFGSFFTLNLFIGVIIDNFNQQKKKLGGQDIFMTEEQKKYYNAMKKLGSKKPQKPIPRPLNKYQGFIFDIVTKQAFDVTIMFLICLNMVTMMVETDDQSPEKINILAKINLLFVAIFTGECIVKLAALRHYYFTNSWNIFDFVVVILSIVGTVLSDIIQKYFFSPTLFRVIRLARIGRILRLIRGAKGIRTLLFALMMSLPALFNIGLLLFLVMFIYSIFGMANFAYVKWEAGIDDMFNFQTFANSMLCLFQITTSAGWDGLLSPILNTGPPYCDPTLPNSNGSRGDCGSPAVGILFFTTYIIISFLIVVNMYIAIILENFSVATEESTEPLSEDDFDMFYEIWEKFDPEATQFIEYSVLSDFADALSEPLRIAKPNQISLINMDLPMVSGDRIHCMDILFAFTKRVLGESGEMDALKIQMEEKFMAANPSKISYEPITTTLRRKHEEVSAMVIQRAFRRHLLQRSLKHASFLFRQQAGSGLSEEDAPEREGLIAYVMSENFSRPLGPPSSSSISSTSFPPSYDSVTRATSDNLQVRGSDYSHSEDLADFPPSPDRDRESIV
Chain of Sodium channel protein type 5 subunit alpha/beta-1/beta-2 (O60939 whole entry, further chain): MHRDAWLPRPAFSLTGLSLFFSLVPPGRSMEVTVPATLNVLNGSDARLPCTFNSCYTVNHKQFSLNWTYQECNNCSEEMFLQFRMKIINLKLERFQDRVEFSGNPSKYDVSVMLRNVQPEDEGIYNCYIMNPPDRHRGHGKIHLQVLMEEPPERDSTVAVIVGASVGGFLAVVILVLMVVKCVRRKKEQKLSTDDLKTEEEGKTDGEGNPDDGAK
Chain of Sodium channel protein type 5 subunit alpha/beta-1/beta-2 (Q07699 whole entry, further chain): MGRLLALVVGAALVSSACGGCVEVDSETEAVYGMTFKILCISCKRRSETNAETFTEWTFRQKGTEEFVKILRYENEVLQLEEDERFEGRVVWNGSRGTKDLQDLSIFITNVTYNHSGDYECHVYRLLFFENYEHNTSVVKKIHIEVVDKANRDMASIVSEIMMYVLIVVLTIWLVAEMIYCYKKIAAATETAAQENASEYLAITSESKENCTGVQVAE
Chain of Sodium channel protein type 9 subunit alpha/beta-1/beta-2 (Homo sapiens, UniProt Q15858) (Q15858 whole entry): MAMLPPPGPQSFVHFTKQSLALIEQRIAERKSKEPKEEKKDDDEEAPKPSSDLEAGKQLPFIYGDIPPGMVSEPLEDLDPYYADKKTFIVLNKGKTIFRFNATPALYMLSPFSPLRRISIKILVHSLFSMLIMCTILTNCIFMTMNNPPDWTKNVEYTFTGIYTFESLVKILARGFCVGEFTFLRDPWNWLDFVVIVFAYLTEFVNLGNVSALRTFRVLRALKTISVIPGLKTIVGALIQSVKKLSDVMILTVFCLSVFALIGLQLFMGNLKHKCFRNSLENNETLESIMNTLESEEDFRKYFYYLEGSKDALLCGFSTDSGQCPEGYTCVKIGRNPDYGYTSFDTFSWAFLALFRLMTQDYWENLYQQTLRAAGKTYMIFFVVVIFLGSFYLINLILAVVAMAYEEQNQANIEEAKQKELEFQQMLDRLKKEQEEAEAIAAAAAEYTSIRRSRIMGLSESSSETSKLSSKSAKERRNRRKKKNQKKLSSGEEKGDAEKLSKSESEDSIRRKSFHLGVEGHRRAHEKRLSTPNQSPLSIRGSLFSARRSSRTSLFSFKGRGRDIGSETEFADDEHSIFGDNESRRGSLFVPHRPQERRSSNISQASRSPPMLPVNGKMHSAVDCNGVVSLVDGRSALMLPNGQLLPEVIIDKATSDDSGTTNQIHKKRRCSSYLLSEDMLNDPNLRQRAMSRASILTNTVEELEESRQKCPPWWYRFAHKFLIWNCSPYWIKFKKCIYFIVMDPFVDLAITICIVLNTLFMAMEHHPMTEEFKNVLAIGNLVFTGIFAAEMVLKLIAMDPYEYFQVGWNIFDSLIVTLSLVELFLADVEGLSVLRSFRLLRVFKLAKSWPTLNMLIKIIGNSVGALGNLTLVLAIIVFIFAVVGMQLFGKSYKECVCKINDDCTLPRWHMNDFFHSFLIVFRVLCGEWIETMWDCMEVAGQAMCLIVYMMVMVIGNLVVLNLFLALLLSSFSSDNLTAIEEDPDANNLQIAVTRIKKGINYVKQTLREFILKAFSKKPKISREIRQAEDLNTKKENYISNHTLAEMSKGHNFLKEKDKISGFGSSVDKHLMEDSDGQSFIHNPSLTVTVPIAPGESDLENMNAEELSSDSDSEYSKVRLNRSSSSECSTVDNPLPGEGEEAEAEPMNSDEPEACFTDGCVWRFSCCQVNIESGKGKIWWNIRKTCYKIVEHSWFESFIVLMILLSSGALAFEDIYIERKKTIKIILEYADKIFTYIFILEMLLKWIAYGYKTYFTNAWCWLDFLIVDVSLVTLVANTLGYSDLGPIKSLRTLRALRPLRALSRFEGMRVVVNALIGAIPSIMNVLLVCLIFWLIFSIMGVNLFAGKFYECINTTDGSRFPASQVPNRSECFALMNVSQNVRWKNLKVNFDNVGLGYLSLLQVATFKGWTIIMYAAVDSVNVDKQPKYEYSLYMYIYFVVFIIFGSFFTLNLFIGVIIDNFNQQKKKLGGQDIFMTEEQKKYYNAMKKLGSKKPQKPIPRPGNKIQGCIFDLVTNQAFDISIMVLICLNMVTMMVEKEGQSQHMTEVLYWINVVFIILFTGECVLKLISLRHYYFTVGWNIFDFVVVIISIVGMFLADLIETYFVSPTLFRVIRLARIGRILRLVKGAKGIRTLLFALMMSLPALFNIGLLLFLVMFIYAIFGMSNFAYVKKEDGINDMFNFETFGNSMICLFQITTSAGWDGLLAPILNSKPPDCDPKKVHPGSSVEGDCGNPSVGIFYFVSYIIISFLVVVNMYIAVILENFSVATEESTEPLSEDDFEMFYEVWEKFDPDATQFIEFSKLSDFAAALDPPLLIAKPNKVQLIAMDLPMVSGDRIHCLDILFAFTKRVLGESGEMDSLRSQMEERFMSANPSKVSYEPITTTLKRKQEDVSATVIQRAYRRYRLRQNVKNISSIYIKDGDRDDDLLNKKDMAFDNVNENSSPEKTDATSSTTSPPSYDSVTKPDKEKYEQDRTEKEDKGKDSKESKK
Chain of Sodium channel protein type 9 subunit alpha/beta-1/beta-2 (Homo sapiens, UniProt Q15858) (O60939 whole entry, further chain): as the sequence (O60939 whole entry, further chain) above
Chain of Sodium channel protein type 9 subunit alpha/beta-1/beta-2 (Homo sapiens, UniProt Q15858) (Q07699 whole entry, further chain): as the sequence (Q07699 whole entry, further chain) above
Chain of Cytochrome P450 3A4 (P08684 whole entry): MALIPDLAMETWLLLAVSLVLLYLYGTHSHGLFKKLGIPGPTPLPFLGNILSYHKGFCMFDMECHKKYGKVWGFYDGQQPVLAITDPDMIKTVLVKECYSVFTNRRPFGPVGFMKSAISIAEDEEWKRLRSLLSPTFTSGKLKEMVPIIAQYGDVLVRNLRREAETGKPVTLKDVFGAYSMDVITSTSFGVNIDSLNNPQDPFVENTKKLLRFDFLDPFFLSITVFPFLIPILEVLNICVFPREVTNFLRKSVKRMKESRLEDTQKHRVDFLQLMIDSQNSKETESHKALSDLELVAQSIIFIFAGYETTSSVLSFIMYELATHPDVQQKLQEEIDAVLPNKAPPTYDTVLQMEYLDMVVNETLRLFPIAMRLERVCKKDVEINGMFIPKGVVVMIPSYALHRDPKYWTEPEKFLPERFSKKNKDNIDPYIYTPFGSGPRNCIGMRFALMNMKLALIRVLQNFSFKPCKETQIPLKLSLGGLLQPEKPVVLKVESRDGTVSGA

Turning to `C[C@@H](c1cc(Cl)cc(Cl)c1)N1CCC(COc2cc(F)c(C(=O)NS(C)(=O)=O)cc2C2CC2)CC1`, the results for the half-inhibitory concentration (IC50) in series [1] and in series [3] were 0.0006 µM and 0.551 µM, respectively. Moreover, in series [2], the concentration for half-maximal inhibition (IC50) at 5.5 min is 0.202 µM.

Regarding `Cc1cn(-c2cccc(C(F)(F)F)c2)c2cc(F)c(C(=O)NS(C)(=O)=O)cc12`, in series [4], the solubility thermodynamic at 4 h worked out at 230 µM (≈ 95.3 µg/mL). Moreover, the result with Mus musculus [5] was Active. Moreover, the IC50 was 0.019 µM in [1], more than 100 µM in [7], 0.016 µM in series [10] and 14 µM in series [3]. In series [6], this molecule came in with a logD of 1.5. For the same molecule, the “Ratio IC50” value in series [8] came out at 740; in series [11] it was 5000. This molecule also had a fraction unbound in series [9] of 0.004. For the same molecule, testing at 100 µM against hERG (KCNH2) gave an inhibition of 54.8%.

Take `O=C(NS(=O)(=O)N1CCC1)c1cc(C2CC2)c(OCC23CC4CC(CC(C4)C2)C3)cc1F`: the 50% inhibitory concentration (IC50) at 5.5 min in series [12] is 0.051 µM.

Regarding `Cc1cn(-c2cncc(C(F)(F)F)c2)c2ccc(C(=O)NS(=O)(=O)C3CC3)cc12`, the solubility thermodynamic at 4 h in series [4] was 130 µM (≈ 55 µg/mL). For the same molecule, the concentration for half-maximal inhibition (IC50) in series [1] was 0.015 µM; in series [7] it was 6.6 µM; in [10], 0.061 µM; in series [3] it was 14 µM. This molecule registered an AUC(0-t) in series [13] of 41.5 µM·h. This molecule registered a logD in [6] of 1. In series [14], this molecule had a clearance of 1.01 mL/min/kg. The molecule further returned a Cmax in series [15] of 2300 nM. Moreover, the “inhibition (INH)” value against Cytochrome P450 2D6, against Cytochrome P450 3A4, on Cytochrome P450 1A2 and at Cytochrome P450 2C9 was “Not Active” throughout. In [16], this molecule had a half-life of 17 h. Further, the “Ratio IC50” value in series [8] is 930; in series [11], 440. For the same molecule, the outcome with Mus musculus [17] and in the series with Mus musculus [21] was inactive. This molecule also came in with a free fraction (fraction unbound) in series [9] of 0.005. Moreover, the Activity result in [18] was “Not Active”. Moreover, the Vd in series [19] amounted to 0.81 L/kg. The Ratio in series [20] is recorded as 0.2. Further, the outcome with Mus musculus [22] and in the series on Mus musculus [24] was Active. Moreover, the time to peak (Tmax) in series [23] is 3.3 h. The same molecule showed an inhibition at 100 µM at hERG (KCNH2) of 6.9%. In series [25], the bioavailability was 117%.
